Test results taken from US10441662B2, “Polymer, method for producing polymer, and drug conjugate” (Kawasaki Institute of Industrial Promotion, priority 2016, dated 2019).
Counter-ions that a name gives are not always drawn. Like-named read-outs stand apart in the source and are kept apart here.

Legend:
PC14.PE6 strain = assay: Cytotoxicity test against lung cancer cells, PC14.PE6
Procedure: (§1) The cytotoxicity test was performed on the K252a-H bonded aromatic polymer micelle and the K252a-H bonded aliphatic polymer micelle using the lung cancer cell strains listed in Table 4.
(§2) 2000 cells/50 μL of a cell solution was adjusted to have an appropriate amount, and 50 μL of the solution was each seeded to the […] of a 96-well plate. Only a culture medium (DMEM culture medium containing 10% FBS) was added to the raw 1. After the seeding, the 96-well plate was incubated for 24 hours.
(§3) 300 μL of a culture medium was added to each of 10 wells of the 24-well plate. 100 μL of the micelle solution was added to the well 1A of the 24-well plate and stirred by pipetting (approximately 10 times), and 100 μL of the micelle solution was transferred to the well 2B and stirred in the same manner as described above. The same operation was repeated 10 times, and micelle solutions having ten different concentrations were prepared.
(§4) 50 μL of each micelle solution adjusted in the above-described manner was added to the row 3 to the row 12 of a 96-well plate seeded with cancer cells in descending order of micelle concentrations of the solutions. Only 50 μL of a culture medium was added to the rows 1 and 2. Thereafter, the 96-well plate was incubated. After the incubation, the cells remained, the solutions in the wells were removed, and the cells in each well were washed with 200 μL of the culture medium. Finally, 100 μL of the culture medium was added to each well and the 96-well plate was incubated for 48 hours.
(§5) After 48 hours, 10 μL of a cell counting kit-8 solution (DOJINDO) was added to each well. The 96-well plate was incubated again, and the absorbance at a wavelength of 450 nm was measured after 30 minutes, 1 hour, and 2 hours.
The PC14.PE6 strain is a cancer cell strain (Yano et al., Oncology Research 9:573 to 579 (1997)) obtained by performing an operation of administering the PC14 strain to the tail vein of a mouse and establishing the cancer cells metastasized to the thoracic cavity six times. Therefore, the PC14.PE6 strain is a cancer cell strain which is extremely metastatic and malignant.

PC14 strain = assay: Cytotoxicity test against lung cancer cells, PC14
Procedure: as §1, §2, §3, §4, §5
The PC14.PE6 strain is a cancer cell strain (Yano et al., Oncology Research 9:573 to 579 (1997)) obtained by performing an operation of administering the PC14 strain to the tail vein of a mouse and establishing the cancer cells metastasized to the thoracic cavity six times. […]

[1] = Evaluation of maximum tolerated dose (MTD) of DAVBNH; assay type: in vivo, mouse
Procedure: DAVBNH was administered to mice (BALB/c Nude, female, 6 weeks old) four times (0 day, 3rd day, 6th day, 9th day) […], and the maximum tolerated dose (MTD) was evaluated. The administration groups were prepared as follows, and the number of mice in each group was set to 3.
Administration group 1: 3 mg/kg of DAVBNH
Administration group 2: 4 mg/kg of DAVBNH
Administration group 3: 6 mg/kg of DAVBNH

[2] = Evaluation of maximum tolerated dose (MTD) of drug conjugate; assay type: in vivo, mouse
Procedure: The drug was administered to mice (BALB/c Nude, female, 6 weeks old) four times (0 day, 3rd day, 6th day, 9th day) […], and the maximum tolerated dose (MTD) was evaluated. The administration groups were prepared as follows, and the number of mice in each group was set to 5.
Administration group 1: PBS (control)
Administration group 2: 2 mg/kg of DAVBNH (VinHyd)
Administration group 3: 2 mg/kg of DAVBNH bonded polymer micelle (Example 1)
Administration group 4: 4 mg/kg of DAVBNH bonded polymer micelle (Example 1)
Administration group 5: 16 mg/kg of DAVBNH bonded polymer micelle (Example 1)

[3] = test system: pancreatic cancer cell strains; assay: Cytotoxicity test against pancreatic cancer cells; assay type: cell-based; settings: FIG. 31
Procedure: The cytotoxicity test was performed on the K252a-H bonded aromatic polymer micelle and the K252a-H bonded aliphatic polymer micelle using various pancreatic cancer cell strains in the same manner as described above. The BXPC3-F3 strain is a metastatic strain which became malignant by performing an operation of establishing a cancer cell strain metastasized to the liver after orthotopic transplant into a mouse, three times. Further, KP-3L is a metastatic strain (available from the cell bank of National Institutes of Biomedical Innovation, Health and Nutrition JCRB) obtained by establishing a cancer cell strain metastasized to the liver after human liver metastatic pancreatic cancer was transplanted to the spleen of a nude mouse.

[4] = target: mutant kinases (list of FIG. 42); assay: Hot spot kinase profiling, Monthly 202 mutant kinase panel; assay type: biochemical; settings: 100 nM, ATP 10 μM, mutant kinases listed in FIG. 42
Procedure: (§6) The kinase profiling of K252a-H was performed using Monthly 202 mutant kinase panel by entrustment with Reaction Biology Corporation. The conditions for the kinase assay are as follows. KK252a was dissolved in DMSO and the assay was performed at 100 nM.
(§7) Buffer condition: 20 mM HEPES, pH of 7.5, 10 mM MgCl2, 1 mM EGTA, (in a case of being applicable, 2 mM MnCl2)

[5] = test system: lung cancer cell strains listed in Table 4; assay: Cytotoxicity test against lung cancer cells; assay type: cell-based; settings: FIG. 29
Description: Further, in the following example, the used cell strains were purchased from the cell bank of American Type Culture. Collection, ATCC or National Institutes of Biomedical Innovation, Health and Nutrition (JCRB). PC14 PE6 was distributed from Profession Hosho (Tottori University). As the culture medium, DMEM, RPMI, or E-MEM was used unless otherwise specified. Gefitinib, Afatinib, Erlotinib, Cisplatin, Pemetrexed, and Gemicitabine were purchased from Funakoshi Co., Ltd. Osimertinib was purchased from Sellek Chemicals LLC.
Thereafter, the 96-well plate was incubated.

[6] = test system: mesothelioma cell strain MSTO-211H; assay: Cytotoxicity test against mesothelioma cells; assay type: cell-based; settings: FIG. 33
Description: Further, CDDP indicates Cisplatin serving as a target treatment drug for mesothelioma. Pemetrexed is also a target treatment drug for mesothelioma.

RET = assay: Hot spot kinase profiling; assay type: biochemical; settings: 100 nM, ATP 10 μM
Procedure: as §6, §7

Flt3 = assay: Hot spot kinase profiling; assay type: biochemical; settings: 100 nM, ATP 10 μM
Procedure: as §6, §7

c-kit = assay: Hot spot kinase profiling; assay type: biochemical; settings: 100 nM, ATP 10 μM
Procedure: as §6, §7

[7] = test system: head and neck cancer cell strains; assay: Cytotoxicity test against head and neck cancer cells; assay type: cell-based; settings: all head and neck cancer cell strains, FIG. 32
Procedure: The cytotoxicity test was performed on the K252a-H bonded aromatic polymer micelle and the K252a-H bonded aliphatic polymer micelle using various head and neck cancer cell strains in the same manner as described above. Further, CDDP indicates Cisplatin serving as a target treatment drug for head and neck cancer.

EGFR d746-750/T790M = target: T1, EGFR d746-750/T790M (Homo sapiens, UniProt P00533, DEL746-750/T790M); assay: Hot spot kinase profiling, EGFR mutation; assay type: biochemical; settings: 100 nM, ATP 10 μM, FIG. 40
T1 construct: purchased Reaction Biology Corporation
Procedure: as §6, §7

EGFR L858R = target: T2, EGFR L858R (Homo sapiens, UniProt P00533, L858R); assay: Hot spot kinase profiling, EGFR mutation; assay type: biochemical; settings: 100 nM, ATP 10 μM, FIG. 40
T2 construct: purchased Reaction Biology Corporation
Procedure: as §6, §7

EGFR T790M = target: T3, EGFR T790M (Homo sapiens, UniProt P00533, T790M); assay: Hot spot kinase profiling, EGFR mutation; assay type: biochemical; settings: 100 nM, ATP 10 μM, FIG. 40
T3 construct: purchased Reaction Biology Corporation
Procedure: as §6, §7

[8] = target: T4, EGFR d746-750/T790M/C797S (Homo sapiens, UniProt P00533, C797S/DEL746-750/T790M); assay: Hot spot kinase profiling, EGFR mutation; assay type: biochemical; settings: 100 nM, ATP 10 μM, FIG. 40
T4 construct: purchased Reaction Biology Corporation
Procedure: as §6, §7

[9] = Solubilization test in water; assay type: physicochemical; settings: distilled water, UV absorption spectrum of filtrate
Procedure: K252a-H powder was dissolved in distilled water or methanol at a ratio of 1 mg/mL and the solution was sufficiently mixed. Thereafter, the solution was filtered using a filter having a pore diameter of […]. The ultraviolet absorption spectrum of the filtrate prepared as described above was measured using a spectrophotometer (Jasco V670). Based on the results of FIG. 27, it was confirmed that K252a-H was only dissolved in water at a ratio of 1 μg/mL or less.
Meanwhile, the K252a-H bonded aromatic polymer micelle and the K252a-H bonded aliphatic polymer micelle were dissolved in water, and the concentration of K252a-H was measured using HPLC.

[10] = test system: U87MG serving as a glioma cell strain; assay: Cytotoxicity test against brain tumor cells (cell-counting kit-8); assay type: cell-based; settings: Homo sapiens, U-87 MG
Procedure: The in vitro cytotoxicity of the vinblastine sulfate and the drug conjugate (DAVBNH bonded polymer micelle of Example 1) was evaluated using cell-counting kit-8 with respect to U87MG serving as a glioma cell strain. The U87MG cells (3000 cells/well) were cultured in a DMEM medium containing 10% FBS using a 96-well plate. Thereafter, the U87MG cells were exposed to the vinblastine sulfate or the drug conjugate whose dose was different from that of the vinblastine sulfate. The cell survival rates after 48 hours and 72 hours from the exposure were acquired by measuring the formazan absorbance […] 450 nm.

[11] = mouse; cited from earlier work
[12] = malignant metastatic strain, compared with PC14

## CN(C)C/C=C/C(=O)Nc1cc2c(Nc3ccc(F)c(Cl)c3)ncnc2cc1O[C@H]1CCOC1 [Afatinib]
PC14.PE6 strain; [12]
  cytotoxic activity against the PC14.PE6 strain: significantly decreased
PC14 strain; FIGS. 29 and 30
  cytotoxic activity against the PC14 strain: excellent cytotoxic activity

## CC[C@]1(O)C[C@@H]2CN(CCc3c([nH]c4ccccc34)[C@@](C(=O)OC)(c3cc4c(cc3OC)N(C)[C@H]3[C@@](O)(C(=O)NN)[C@H](O)[C@]5(CC)C=CCN6CC[C@]43[C@@H]65)C2)C1 [DAVBNH, desacetyl vinblastine hydrazide]
[1]; dose of 3 mg/kg, after only 25% of the treatment schedule
  weight loss: significant weight loss was observed
[1]; mice, four administrations
  lethal dose: 6 mg/kg
[2]; dose 2 mg/kg
  weight loss: a weight loss occurs
[2]; female, BALB/c Nude, mouse, in vivo, 2 mg/kg, mice, as used in Example 8
  MTD: 2 mg/kg

## C#Cc1cccc(Nc2ncnc3cc(OCCOC)c(OCCOC)cc23)c1 [Erlotinib]
[3]
  effect on K-ras mutant strains and malignant metastatic strains: not largely affected

## CC12OC(CC1(O)C(=O)NN)n1c3ccccc3c3c4c(c5c6ccccc6n2c5c31)CNC4=O (centres unmarked) [Example K252a-H, K252a hydrazide]
[4]
  kinase activity suppressed to: ≤ 30%
PC14.PE6 strain; [12]
  cytotoxic activity against the PC14.PE6 strain: increased
[5]
  cytotoxic activity against lung cancer having resistance to lung cancer treatment drugs of the related art: excellent cytotoxic activity
[6]
  cytotoxic activity compared with Cisplatin and Pemetrexed: higher cytotoxic activity than that of Cisplatin and Pemetrexed
RET
  inhibition of oncogene RET: strong inhibitor
Flt3
  inhibition of oncogene Flt3: strong inhibitor
c-kit
  inhibition of oncogene c-kit: strong inhibitor
[7]
  cytotoxic activity compared with Cisplatin: higher cytotoxic activity against all head and neck cancer cell strains than that of Cisplatin
EGFR d746-750/T790M
  activity against EGFR gatekeeper mutation d746-750/T790M: specifically high activity
EGFR L858R
  activity against EGFR gatekeeper mutation L858R: specifically high activity
EGFR T790M
  activity against EGFR gatekeeper mutation T790M: specifically high activity
[8]
  activity against EGFR gatekeeper mutation d746-750/T790M/C797S: specifically high activity
[3]
  effect on K-ras mutant strains and malignant metastatic strains: effective for K-ras mutant strains and malignant metastatic strains
[9]
  dissolved in water: ≤ 1 µg/mL

## COc1cc2ncnc(Nc3ccc(F)c(Cl)c3)c2cc1OCCCN1CCOCC1 [Gefitinib]
PC14.PE6 strain
  cytotoxic activity against the PC14.PE6 strain: significantly decreased
PC14 strain
  cytotoxic activity against the PC14 strain: excellent cytotoxic activity

## Nc1ccn([C@@H]2O[C@H](CO)[C@@H](O)C2(F)F)c(=O)n1 [Gemcitabine]
[3]
  effect on K-ras mutant strains and malignant metastatic strains: not largely affected

## C=CC(=O)Nc1cc(Nc2nccc(-c3cn(C)c4ccccc34)n2)c(OC)cc1N(C)CCN(C)C [Osimertinib]
PC14.PE6 strain
  cytotoxic activity against the PC14.PE6 strain: significantly decreased
PC14 strain
  cytotoxic activity against the PC14 strain: excellent cytotoxic activity

## CC[C@]1(O)C[C@@H]2CN(CCc3c([nH]c4ccccc34)[C@@](C(=O)OC)(c3cc4c(cc3OC)N(C)[C@H]3[C@@](O)(C(=O)OC)[C@H](OC(C)=O)[C@]5(CC)C=CCN6CC[C@]43[C@@H]65)C2)C1 [Vinblastine sulfate, vinblastine sulfate]
[10]; 48 hours from the exposure, read-out: IC50 48 hours
  IC50: 1.4 nM
[10]; 72 hours from the exposure, read-out: IC50 72 hours
  IC50: 1.7 nM

## CC[C@]1(O)C[C@@H]2CN(CCc3c([nH]c4ccccc34)[C@@](C(=O)OC)(c3cc4c(cc3OC)N(C)[C@H]3[C@@](O)(C(=O)OC)[C@H](OC(C)=O)[C@]5(CC)C=CCN6CC[C@]43[C@@H]65)C2)C1 [Vinblastine, vinblastine]
[11]
  maximum tolerated dose: 2 mg/kg
